{"source": "patent US10878939B2", "about": "“Methods and compositions for personalized pain management” (Children's Hospital Medical Center, priority 2014, dated 2020)", "key": {"[1]": {"system": "children undergoing tonsillectomy", "assay": "Postoperative analgesia measurements by ABCB1 genotype (Example 7)", "procedure": "All participants received standard perioperative care. Anesthesia was induced using sevoflurane followed by a propofol (2 mg/kg) bolus to facilitate endotracheal intubation. Anesthesia was maintained with sevoflurane without the use of neuromuscular blockade. […] All children receive prophylactic ondansetron (0.1 mg/kg) and dexamethasone (0.1 mg/kg) intraoperatively.\nBlood was collected from each participant in the operating room under anesthesia and the DNA was isolated the same day and stored at −20 degree Celsius. Batched genotyping was performed after clinical data was entered on all study participants. The TaqMan allelic discrimination system assays and Genotyper Softerware Version 1.0.1 (Life Technologies, Applied Biosystems, Forest City, Calif.) were used to analyse and report the following ABCB1 polymorphisms: rs1045642, rs2032582, rs1128503, rs2229109, and rs9282564.\nPrior to analysis, data qualities were examined. For the ABCB1 variants, allelic and genotype frequencies were assessed in white and black patients separately, and Hardy Weinberg equilibrium (HWE) was tested. To analyze binary outcomes (RD, prolonged PACU secondary to RD and analgesic intervention need), logistic regression was performed. […] Thus, maximum FLACC scores were analyzed using a zero-inflated negative binomial model to appropriately capture the distribution of this variable. […] To select the best fitting model, log likelihood, Akaike and Bayesian Information criterion were compared, and residuals were examined. […] To assess the single SNP association with the outcomes, additive models were used, in which the genotypes were recoded and tested as continuous variables. For the four bi-allelic SNPs, genotypes were recoded to 0, 1 and 2 according to the number of minor alleles. For rs2032582, GG genotype was recoded as 0; GA and GT genotypes were combined and recoded as 1, and TT and TA genotypes as 2. Statistical modeling was conducted with white and black patients separately and combined. When races were combined, the effects of race and race*SNP interaction were tested."}, "[2]": {"system": "children undergoing tonsillectomy", "assay": "Analgesic effectiveness outcomes by sex and morphine dose (Example 6)"}, "[3]": {"details": "F, intra-op morphine >0.2 mg/kg"}, "[4]": {"details": "F, intra-op morphine >0.1-0.2 mg/kg"}, "[5]": {"details": "F, intra-op morphine ≤0.1 mg/kg"}, "[6]": {"details": "M, intra-op morphine >0.2 mg/kg"}, "[7]": {"details": "M, intra-op morphine >0.1-0.2 mg/kg"}, "[8]": {"details": "M, intra-op morphine ≤0.1 mg/kg"}}}
{"smiles": "CN1CC[C@]23c4c5ccc(O)c4O[C@H]2[C@@H](O)C=C[C@H]3[C@H]1C5", "note": "[morphine]", "values": [{"measurement": "Maximum FLACC", "setting": "[1]; Whites, ABCB1 rs10456542 TT, N=70, median (IQR)", "result": "2 (1-5)"}, {"measurement": "Post-Operative morphine", "setting": "[1]; Whites, ABCB1 rs10456542 TT, N=70, patients with at least one post-operative intervention, mean ± SD", "result": "0.10 ± 0.05", "unit": "mg/kg"}, {"measurement": "post-operative morphine in patients who needed intervention", "setting": "[1]; average", "result": "0.10 ± 0.05", "unit": "mg/kg"}, {"measurement": "Analgesic intervention need in PACU, number of cases", "setting": "[2]; F, All", "result": 67}, {"measurement": "Analgesic intervention need in PACU, proportion", "setting": "[2]; F, All", "result": "(31%)"}, {"measurement": "Maximum FLACC pain score, median", "setting": "[2]; F, All", "result": 2}, {"measurement": "Maximum NRS pain score, median", "setting": "[2]; F, All", "result": 6}, {"measurement": "Number of analgesic interventions, median", "setting": "[2]; F, All", "result": 1}, {"measurement": "Post-operative morphine, mean ± SD", "setting": "[2]; F, All", "result": "0.09 ± 0.05", "unit": "mg/kg"}, {"measurement": "Prolonged PACU stay due to pain, number of cases", "setting": "[2]; F, All", "result": 37}, {"measurement": "Prolonged PACU stay due to pain, proportion", "setting": "[2]; F, All", "result": "(17%)"}, {"measurement": "Analgesic intervention need in PACU, number of cases", "setting": "[2]; F, OSA No", "result": 35}, {"measurement": "Analgesic intervention need in PACU, proportion", "setting": "[2]; F, OSA No", "result": "(28%)"}, {"measurement": "Maximum FLACC pain score, median", "setting": "[2]; F, OSA No", "result": 2}, {"measurement": "Maximum NRS pain score, median", "setting": "[2]; F, OSA No", "result": 6}, {"measurement": "Number of analgesic interventions, median", "setting": "[2]; F, OSA No", "result": 1}, {"measurement": "Post-operative morphine, mean ± SD", "setting": "[2]; F, OSA No", "result": "0.08 ± 0.04", "unit": "mg/kg"}, {"measurement": "Prolonged PACU stay due to pain, number of cases", "setting": "[2]; F, OSA No", "result": 21}, {"measurement": "Prolonged PACU stay due to pain, proportion", "setting": "[2]; F, OSA No", "result": "(17%)"}, {"measurement": "Analgesic intervention need in PACU, number of cases", "setting": "[2]; F, OSA Yes", "result": 32}, {"measurement": "Analgesic intervention need in PACU, proportion", "setting": "[2]; F, OSA Yes", "result": "(34%)"}, {"measurement": "Maximum FLACC pain score, median", "setting": "[2]; F, OSA Yes", "result": 2}, {"measurement": "Maximum NRS pain score, median", "setting": "[2]; F, OSA Yes", "result": 5}, {"measurement": "Number of analgesic interventions, median", "setting": "[2]; F, OSA Yes", "result": 1}, {"measurement": "Post-operative morphine, mean ± SD", "setting": "[2]; F, OSA Yes", "result": "0.09 ± 0.06", "unit": "mg/kg"}, {"measurement": "Prolonged PACU stay due to pain, number of cases", "setting": "[2]; F, OSA Yes", "result": 16}, {"measurement": "Prolonged PACU stay due to pain, proportion", "setting": "[2]; F, OSA Yes", "result": "(17%)"}, {"measurement": "Analgesic intervention need in PACU, number of cases (%)", "setting": "[2]; [3]", "result": "22 (51)"}, {"measurement": "Maximum FLACC pain score, median (IQR)", "setting": "[2]; [3]", "result": "1 (0-5)"}, {"measurement": "Maximum NRS pain score, median (IQR)", "setting": "[2]; [3]", "result": "6 (3-9)"}, {"measurement": "Number of analgesic interventions, median (IQR)", "setting": "[2]; [3]", "result": "1 (0-1)"}, {"measurement": "Post-operative morphine, mean ± SD", "setting": "[2]; [3]", "result": "0.10 ± 0.05", "unit": "mg/Kf"}, {"measurement": "Prolonged PACU stay due to pain, number of cases (%)", "setting": "[2]; [3]", "result": "12 (28)"}, {"measurement": "Analgesic intervention need in PACU, number of cases (%)", "setting": "[2]; [4]", "result": "40 (61)"}, {"measurement": "Maximum FLACC pain score, median (IQR)", "setting": "[2]; [4]", "result": "2 (0-5)"}, {"measurement": "Maximum NRS pain score, median (IQR)", "setting": "[2]; [4]", "result": "5 (2-8)"}, {"measurement": "Number of analgesic interventions, median (IQR)", "setting": "[2]; [4]", "result": "1 (0-1)"}, {"measurement": "Post-operative morphine, mean ± SD", "setting": "[2]; [4]", "result": "0.09 ± 0.05", "unit": "mg/Kf"}, {"measurement": "Prolonged PACU stay due to pain, number of cases (%)", "setting": "[2]; [4]", "result": "22 (33)"}, {"measurement": "Analgesic intervention need in PACU, number of cases (%)", "setting": "[2]; [5]", "result": "5 (100)"}, {"measurement": "Maximum FLACC pain score, median (IQR)", "setting": "[2]; [5]", "result": "3 (3-4)"}, {"measurement": "Maximum NRS pain score, median (IQR)", "setting": "[2]; [5]", "result": "8 (6-10)"}, {"measurement": "Number of analgesic interventions, median (IQR)", "setting": "[2]; [5]", "result": "1 (1-2)"}, {"measurement": "Post-operative morphine, mean ± SD", "setting": "[2]; [5]", "result": "0.07 ± 0.03", "unit": "mg/Kf"}, {"measurement": "Prolonged PACU stay due to pain, number of cases (%)", "setting": "[2]; [5]", "result": "3 (60)"}, {"measurement": "Analgesic intervention need in PACU, number of cases", "setting": "[2]; M, All", "result": 61}, {"measurement": "Analgesic intervention need in PACU, proportion", "setting": "[2]; M, All", "result": "(28%)"}, {"measurement": "Maximum FLACC pain score, median", "setting": "[2]; M, All", "result": 2}, {"measurement": "Maximum NRS pain score, median", "setting": "[2]; M, All", "result": 5}, {"measurement": "Number of analgesic interventions, median", "setting": "[2]; M, All", "result": 1}, {"measurement": "Post-operative morphine, mean ± SD", "setting": "[2]; M, All", "result": "0.09 ± 0.05", "unit": "mg/kg"}, {"measurement": "Prolonged PACU stay due to pain, number of cases", "setting": "[2]; M, All", "result": 36}, {"measurement": "Prolonged PACU stay due to pain, proportion", "setting": "[2]; M, All", "result": "(16%)"}, {"measurement": "Analgesic intervention need in PACU, number of cases", "setting": "[2]; M, OSA No", "result": 35}, {"measurement": "Analgesic intervention need in PACU, proportion", "setting": "[2]; M, OSA No", "result": "(28%)"}, {"measurement": "Maximum FLACC pain score, median", "setting": "[2]; M, OSA No", "result": 2}, {"measurement": "Maximum NRS pain score, median", "setting": "[2]; M, OSA No", "result": 6}, {"measurement": "Number of analgesic interventions, median", "setting": "[2]; M, OSA No", "result": 1}, {"measurement": "Post-operative morphine, mean ± SD", "setting": "[2]; M, OSA No", "result": "0.09 ± 0.05", "unit": "mg/kg"}, {"measurement": "Prolonged PACU stay due to pain, number of cases", "setting": "[2]; M, OSA No", "result": 24}, {"measurement": "Prolonged PACU stay due to pain, proportion", "setting": "[2]; M, OSA No", "result": "(19%)"}, {"measurement": "Analgesic intervention need in PACU, number of cases", "setting": "[2]; M, OSA Yes", "result": 26}, {"measurement": "Analgesic intervention need in PACU, proportion", "setting": "[2]; M, OSA Yes", "result": "(27%)"}, {"measurement": "Maximum FLACC pain score, median", "setting": "[2]; M, OSA Yes", "result": 4}, {"measurement": "Maximum NRS pain score, median", "setting": "[2]; M, OSA Yes", "result": 5}, {"measurement": "Number of analgesic interventions, median", "setting": "[2]; M, OSA Yes", "result": 1}, {"measurement": "Post-operative morphine, mean ± SD", "setting": "[2]; M, OSA Yes", "result": "0.09 ± 0.05", "unit": "mg/kg"}, {"measurement": "Prolonged PACU stay due to pain, number of cases", "setting": "[2]; M, OSA Yes", "result": 12}, {"measurement": "Prolonged PACU stay due to pain, proportion", "setting": "[2]; M, OSA Yes", "result": "(13%)"}, {"measurement": "Analgesic intervention need in PACU, number of cases (%)", "setting": "[2]; [6]", "result": "20 (54)"}, {"measurement": "Maximum FLACC pain score, median (IQR)", "setting": "[2]; [6]", "result": "2 (0-5)"}, {"measurement": "Maximum NRS pain score, median (IQR)", "setting": "[2]; [6]", "result": "6 (4-7)"}, {"measurement": "Number of analgesic interventions, median (IQR)", "setting": "[2]; [6]", "result": "1 (0-1)"}, {"measurement": "Post-operative morphine, mean ± SD", "setting": "[2]; [6]", "result": "0.09 ± 0.05", "unit": "mg/Kf"}, {"measurement": "Prolonged PACU stay due to pain, number of cases (%)", "setting": "[2]; [6]", "result": "12 (32)"}, {"measurement": "Analgesic intervention need in PACU, number of cases (%)", "setting": "[2]; [7]", "result": "36 (58)"}, {"measurement": "Maximum FLACC pain score, median (IQR)", "setting": "[2]; [7]", "result": "3 (1-7)"}, {"measurement": "Maximum NRS pain score, median (IQR)", "setting": "[2]; [7]", "result": "5 (2-8)"}, {"measurement": "Number of analgesic interventions, median (IQR)", "setting": "[2]; [7]", "result": "1 (0-1)"}, {"measurement": "Post-operative morphine, mean ± SD", "setting": "[2]; [7]", "result": "0.10 ± 0.05", "unit": "mg/Kf"}, {"measurement": "Prolonged PACU stay due to pain, number of cases (%)", "setting": "[2]; [7]", "result": "22 (35)"}, {"measurement": "Analgesic intervention need in PACU, number of cases (%)", "setting": "[2]; [8]", "result": "5 (83)"}, {"measurement": "Maximum FLACC pain score, median (IQR)", "setting": "[2]; [8]", "result": "3 (1-5)"}, {"measurement": "Maximum NRS pain score, median (IQR)", "setting": "[2]; [8]", "result": "6 (5-9)"}, {"measurement": "Number of analgesic interventions, median (IQR)", "setting": "[2]; [8]", "result": "1 (1-2)"}, {"measurement": "Post-operative morphine, mean ± SD", "setting": "[2]; [8]", "result": "0.07 ± 0.04", "unit": "mg/Kf"}, {"measurement": "Prolonged PACU stay due to pain, number of cases (%)", "setting": "[2]; [8]", "result": "2 (33)"}, {"measurement": "sex-specific morphine effects on analgesic outcomes", "setting": "[2]; univariate or multivariate modeling", "result": "no evidence of sex-specific morphine effects"}]}
